Drawing on paper PMC8699021, “Which Properties Allow Ligands to Open and Bind to the Transient Binding Pocket of Human Aldose Reductase?” (Biomolecules, 2021), this text covers Kd for three compounds.

Molecules are shown by their SMILES.

For assay [1], the target named is T1, ALR-2 (human aldose reductase, EC 1.1.1.21) (Homo sapiens, UniProt P15121).
T1 construct: gene AKR1B1; one molecule per asymmetric unit
Kind of assay: ITC direct titration; X-ray. The assay is classed as binding. From the text: ITC direct titration; X-ray on ALR-2 (human aldose reductase, EC 1.1.1.21)

Assay [2] deals with T1, ALR-2 (human aldose reductase, EC 1.1.1.21). As to the kind of experiment: ITC direct titration. The assay is classed as binding. From the text:
ITC direct titration on ALR-2 (human aldose reductase, EC 1.1.1.21)

By Kd is commonly meant the concentration at which binding is half-saturated. Higher therefore signals a looser complex. Take `O=C(O)COc1cc(F)ccc1C(=O)NCc1cccc(B(O)O)c1` [compound 4, 2-(2-((3-boronobenzyl)carbamoyl)-5-fluorophenoxy) acetic acid]: the Kd in assay [1] came to 2300 ± 300 nM.

`C[S+]([O-])c1cccc(CNC(=O)c2ccc(F)cc2OCC(=O)O)c1` (stereo not drawn) [compound 3, 2-(5-fluoro-2-((3-(methylsulfinyl)benzyl)carbamoyl)phenoxy)acetic acid] returned a Kd in assay [1] of 5000 ± 600 nM.

On to `O=C(O)COc1cc(F)ccc1C(=O)NCc1nc2ccccc2s1` [compound 9, inhibitor 9], for which, in assay [2], the Kd was found to be 420 ± 80 nM.
